Columns and labels:
IL-17RC [1] = test: IL-17RC gene expression by qPCR in IL-6/23-stimulated murine neutrophils; format: cell-based; conditions: IL-6/23 1 h, FIG. 6A
Text: Total bone marrow-derived cells were isolated from mouse femurs and tibias by flushing with RPMI and an 18-gauge needle. Erythrocytes were lysed with 1× lysis buffer (eBioscience), and bone marrow cells were separated on a Percoll (Fisher) gradient by density centrifugation (52%, 69%, and 78%). Cells at the 69-78% interface were harvested, and neutrophil purity (>98%) confirmed by flow cytometry and Wright-Giemsa staining.
(§1) Murine or human neutrophils were suspended at a density of 10^6 cells/ml and incubated with […] of recombinant mouse or human IL-6 and 2 μg/ml IL-23 in RPMI, and the cells were maintained for 1-3 h at 37° C. in 5% CO2. Various inhibitors were used for assessing STAT3 activation. For STAT3, neutrophils were treated with either the STAT3-SH2 inhibitor, Stattic (20 μM) obtained from Tocris, or the JAK-1, 2 inhibitor, INC424, (aka Ruxolitinib; 20 μM (Selleck BioChem)). For the determination of RORγt-dependent signaling, SR1001 (20 μM; Sigma) was used, which inhibits RORγt binding to the IL-17 promoter site. All inhibitors were added to neutrophils 2 h prior to recombinant IL-6 and IL-23 stimulation.
(§2) Neutrophil and corneal cell RNA was extracted using the RNeasy mini kit according to the manufacturer's directions (Qiagen, Valencia, Calif.). The quality of RNA was checked by spectrophotometry, and only samples with a 260/280 ratio of 2.0 were used to generate cDNA. The SuperScript First Strand synthesis system (Invitrogen) was used to generate cDNA according to the manufacturer's directions.
(§3) The SYBR green system (Applied Biosystems, Carlsbad, Calif.) was utilized for quantitative PCR (qPCR) using ABI Biosystems. PCR products were then run on a 1% agarose gel, and visualized using ethidium bromide. PCR products were compared to Actb (encoding the β-actin gene) or GAPDH as the controls for gel loading.

IL-17RC [2] = test: IL-17RC gene expression by qPCR in IL-6/23-stimulated human neutrophils; format: cell-based; conditions: IL-6/23 1 h, FIG. 6B
Procedure: Neutrophils were isolated from peripheral blood of healthy donors. Peripheral blood was incubated in 3% Dextran, and neutrophils isolated by Ficoll gradient centrifugation (Fisher Scientific), with neutrophil purity determined by staining with Wright-Giemsa.
as §1, §2, §3

A. fumigatus hyphae [3] = test: In vitro fungal killing assay (hyphal coincubation) with murine neutrophils; format: cell-based, Aspergillus fumigatus; conditions: IL-6/23-stimulated, inhibitor 20 μM, FIG. 6D
Text: (§4) Aspergillus strains—For cornea infections and in vitro fungal killing assays, an RFP expressing strain of A. fumigatus (Af-dsRed) was used. This strain is gpdA promoter driven to constitutively express monomeric dsRed. For subcutaneous “priming” injections, heat-killed, swollen conidia Aspergillus fumigatus strain Af-BP was used. For the Aspergillus hyphal extract used in ROS assay, A. fumigatus strain Af-BP hyphae were pulverized in liquid nitrogen, filtered through a 30 μm pre-separation filter (Miltenyi Biotec) and protein measured by the BCA method (Pierce). Aspergillus hyphal extracts (AspHE) were stored at −20° C. and used at a final concentration of 1 mg/ml.
(§5) A hyphal coincubation assay was used to study the ability of murine and human neutrophils to inhibit A. fumigatus hyphal growth as described. Briefly, 12,500 A. fumigatus dsRed expressing conidia (strain Af-dsRed) per 200 μl Sabouraud dextrose media were added to wells of black-walled 96 well plates with an optically clear bottom (CoStar 3720). After 6 h, the conidia had germinated and the hyphae became adherent to the wells, at which time the medium was removed.
(§6) Murine and human neutrophils were incubated with p-STAT3 (20 μM Stattic or 20 μM INC424) or RORγt inhibitors (20 μM SR1001) for 2 h. Then the cells were stimulated with […] of rIL-6 and 2 μg/ml of rIL-23 for 3 h, washed, and 2×10^5 bone marrow-derived murine neutrophils or 10^5 human peripheral blood neutrophils, with or without recombinant IL-17A, were added to each well with growing hyphae. RPMI media was used as positive control (unimpaired growth), and PBS was used as a negative control (no growth (data not shown)). After 16 h the wells were washed with PBS and the dsRed fungal mass was quantified in a 96-well fluorometer at 550/600 nm excitation/emission filter (Synergy HT, Biotek).

A. fumigatus hyphae [4] = test: In vitro fungal killing assay (hyphal coincubation) with human neutrophils; format: cell-based, Aspergillus fumigatus; conditions: IL-6/23-stimulated, inhibitor 20 μM, FIG. 6F
Text: as §4, §5, §6

[5] = tested on: bone marrow-derived murine neutrophils; test: ROS production (CFDA) by murine bone marrow neutrophils incubated with Aspergillus hyphae; format: cell-based, C57BL/6 mice; conditions: IL-6/23-stimulated, inhibitor 20 μM, FIG. 6C
Procedure: as §6
(§7) In vitro ROS production measured by CFDA was previously described. Briefly, 100 μg/100 μl of A. fumigatus hyphal extract (AspHE) were incubated with 2×10^5 murine or human neutrophils. Neutrophils were treated for 1 h with 1 μM Carboxyfluorescein diacetate (H2CFDA (Sigma)), which will fluoresce following ROS oxidation. Neutrophils were collected and analyzed by flow cytometry. H2CFDA pulsed neutrophils that had not been incubated with AspHE were used to set the ROS histogram gate. The average mean intensity was calculated by Accuri flow software and graphed in Prism.

[6] = tested on: human peripheral blood neutrophils; test: ROS production (CFDA) by human peripheral blood neutrophils incubated with Aspergillus hyphae; format: cell-based; conditions: IL-6/23-stimulated, inhibitor 20 μM, FIG. 6E
Procedure: as §6, §7

IL-17A = IL-17A expression in IL-6/23-stimulated murine bone marrow neutrophils (qPCR, ELISA, intracellular flow cytometry); format: cell-based, C57BL/6 mice; conditions: discussion restatement, species not stated
Text: Total bone marrow-derived cells were isolated from mouse femurs and tibias by flushing with RPMI and an 18-gauge needle. Erythrocytes were lysed with 1× lysis buffer (eBioscience), and bone marrow cells were separated on a Percoll (Fisher) gradient by density centrifugation (52%, 69%, and 78%). Cells at the 69-78% interface were harvested, and neutrophil purity (>98%) confirmed by flow cytometry and Wright-Giemsa staining. IL-17A protein production was quantified by 2-site ELISA, according to the manufacturer's directions (R&D Biosciences). Murine or human neutrophils were suspended at a density of 10^6 cells/ml and incubated with […] of recombinant mouse or human IL-6 and 2 μg/ml IL-23 in RPMI, and the cells were maintained for 1-3 h at 37° C. in 5% CO2. Various inhibitors were used for assessing STAT3 activation. […] For the determination of RORγt-dependent signaling, SR1001 (20 μM; Sigma) was used, which inhibits RORγt binding to the IL-17 promoter site. All inhibitors were added to neutrophils 2 h prior to recombinant IL-6 and IL-23 stimulation. […] Ten corneas were pooled and analyzed by intracellular flow cytometry. […] Cells were analyzed using a C6 Accuri flow cytometer (BD). […] The SYBR green system (Applied Biosystems, Carlsbad, Calif.) was utilized for quantitative PCR (qPCR) using ABI Biosystems. […]

SMILES	IL-17RC expression (IL-17RC [1])	IL-17RC expression (IL-17RC [2])	hyphal killing activity (A. fumigatus hyphae [3]; plus rIL-17A)	hyphal growth (fluorescent fungal mass) (A. fumigatus hyphae [3]; without rIL-17A)	fluorescent fungal mass (A. fumigatus hyphae [4]; plus rhIL-17A)	fluorescent fungal mass (A. fumigatus hyphae [4]; without rhIL-17A)	ROS production ([5]; plus rIL-17A)	ROS production ([5]; without rIL-17A)	ROS production ([6]; plus rhIL-17A)	ROS production ([6]; without rhIL-17A)	IL-17 production in stimulated neutrophils (IL-17A)
N#CC[C@H](C1CCCC1)n1cc(-c2ncnc3[nH]ccc23)cn1 [INC424, Ruxolitinib]	did not inhibit	did not inhibit									
CC(=O)Nc1nc(C)c(S(=O)(=O)Nc2ccc(C(O)(C(F)(F)F)C(F)(F)F)cc2)s1 [SR1001]	did not inhibit	did not inhibit	enhanced hyphal killing activity was detected	did not further impede hyphal growth	decreased fungal mass	no increase in ROS (FIG. 6E) or decrease in fluorescent fungal mass	ROS production was increased	not increased above the level produced by naïve neutrophils	increased ROS	no increase in ROS	ablated

From US9814720B2, “Compositions and methods of inhibiting IL-17 expression of neutrophils” (priority 2014, dated 2017)
